Values belong to the compound of their own block, whether it stands above or below them. Starred links: 1 amine or outer side, 2 acyl side, 3 side chain; linkers in the order of their positions; H or OH if unused. Non-standard residues stand in square brackets, D forms with d. Residues, ends and D or L forms follow the SMILES beside them. No end group written: not given here. *: point of attachment. X1 = C/C=C(/C)C(=O)O[C@H]1C(C)=C2[C@H]([C@@H]1OC(=O)CCCCCCC)[C@@](C)(OC(C)=O)C[C@H](OC(=O)Cc1ccc(O)c(CCCCCN*)c1)[C@@]1(O)[C@H]2OC(=O)[C@@]1(C)O; γGlu = O=C(O)[C@H](CCC(=O)[*:2])N[*:1]; Morpholide = C1CN(*)CCO1; PhADT = not defined here; CO = O=C([*:1])[*:2]
How the values were obtained:
CWR22H tumor = assay: Biodistribution in CWR22H tumor bearing mice; type: in vivo; settings: % Injected Dose/gram tissue, five days after single intravenous dose of 2 μmole (120 mg/kg) of prodrug
Method: FIGS. 4A and 4B are (A) selective accumulation of 12ADT-Asp and 12ADT-Asp-Glu in tumor tissue compared to indicated normal tissue five days after single intravenous dose of 2 μmole (120 mg/kg) (FIG. 4A discloses “Asp-Glu*Glu*Glu*Glu” as SEQ ID NO: 57); and (B) biodistribution of TG species (sum of 12ADT-Asp, 12ADT-Asp-Glu and 12ADT-Asp-Glu*Glu*Glu*Glu (SEQ ID NO: 57)) in CWR22H tumor bearing mice. Data presented as % Initial dose (ID)/gram and tumor/tissue ratios (n=4 mice).
In the course of developing a PSMA-activated TG therapy, a prodrug that was readily hydrolyzed by PSMA and selectively toxic to PSMA-producing human prostate cancers in vitro and in vivo was identified. Tissue levels of the TG analog (12ADT-Asp) that is released from the peptide carrier by PSMA were analyzed. See, for example, FIG. 4A.
The characterization of 12ADT-Asp is described in detail below. This TG analog is even more lipophilic than TG due to substitution of the butanoyl side chain of TG with a 12 carbon aminododecanoyl side chain. While it might have been expected to see accumulation of this highly lipophilic 12ADT-Asp in tumor tissue due to PSMA activation, the magnitude of accumulation of the free drug compared to plasma was unexpected. […]

SERCA = SERCA inhibition compared to TG (preliminary / earlier data); type: biochemical
[1] = Peptide stability to hydrolysis in human plasma; type: in vitro ADME
Source text: (§1) Some preferred peptides include a PSMA-hydrolyzable, a-linked dipeptide “cap” that are not substrates for GGH, and are more specific PSMA substrates. Combination a- and side chain-linked PSMA substrates can be highly efficient and specific. […] A number of aspartate- and glutamate-containing linkers are depicted in FIG. 1. These particular linkers can be bonded to amine groups on therapeutic drugs.

[2] = Peptide stability to hydrolysis in mouse plasma; type: in vitro ADME
Source text: as §1

[3] = Peptide stability in serum; type: in vitro ADME
Source text: as §1

LNCaP cells [4] = assay: Cleavage assay with LNCaP cells, metabolites by LC/MS; type: cell-based, human; settings: 3 days culture with drug
LNCaP cells [5] = tested on: LNCaP cells
[6] = molecular target: sarcoplasmic reticulum (SR) and endoplasmic reticulum (ER) Ca2+-ATPase (SERCA) pump; settings: SERCA pump of skeletal, cardiac, muscle and brain microsomes; read-out: apparent dissociation constant; cited from earlier work
SERCA pump = molecular target: T1, SERCA pump (Oryctolagus cuniculus, UniProt P04191); assay: Microsomal assay of SERCA pump inhibition compared to TG; type: biochemical
T1 construct: from tissue; host or cells: microsomes
T1 sequence (P04191 1-994 isoform P04191-2): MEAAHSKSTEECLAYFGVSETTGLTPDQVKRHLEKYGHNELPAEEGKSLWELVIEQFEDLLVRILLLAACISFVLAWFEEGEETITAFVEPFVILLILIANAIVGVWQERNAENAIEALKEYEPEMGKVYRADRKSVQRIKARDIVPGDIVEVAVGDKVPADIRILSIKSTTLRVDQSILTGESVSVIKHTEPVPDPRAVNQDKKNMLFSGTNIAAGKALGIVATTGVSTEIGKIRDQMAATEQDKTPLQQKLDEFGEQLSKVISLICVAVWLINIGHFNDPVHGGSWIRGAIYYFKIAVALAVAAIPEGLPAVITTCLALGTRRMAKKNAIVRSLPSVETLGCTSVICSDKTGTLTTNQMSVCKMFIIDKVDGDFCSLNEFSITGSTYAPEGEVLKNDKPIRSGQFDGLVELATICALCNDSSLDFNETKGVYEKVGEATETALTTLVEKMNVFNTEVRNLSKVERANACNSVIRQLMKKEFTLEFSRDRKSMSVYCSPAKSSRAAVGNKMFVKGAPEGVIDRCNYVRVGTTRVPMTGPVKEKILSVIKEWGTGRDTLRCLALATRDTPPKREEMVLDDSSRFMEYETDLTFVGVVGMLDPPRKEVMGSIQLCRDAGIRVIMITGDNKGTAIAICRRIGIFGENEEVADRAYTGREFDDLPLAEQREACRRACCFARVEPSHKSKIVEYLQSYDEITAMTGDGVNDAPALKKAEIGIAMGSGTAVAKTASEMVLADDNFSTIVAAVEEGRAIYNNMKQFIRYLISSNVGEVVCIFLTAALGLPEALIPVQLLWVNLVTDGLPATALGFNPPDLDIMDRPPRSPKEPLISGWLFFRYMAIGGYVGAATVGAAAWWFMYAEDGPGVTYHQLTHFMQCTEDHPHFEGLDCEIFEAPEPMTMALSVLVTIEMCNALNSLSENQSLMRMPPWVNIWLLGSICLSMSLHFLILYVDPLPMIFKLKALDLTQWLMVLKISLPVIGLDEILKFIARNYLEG
Method: FIG. 6. Microsomal assay comparing inhibition of SERCA pump by compound 14 and TG over a range of concentrations.
All materials were purified by column chromatography with structure confirmed by NMR analysis and mass spectroscopy. The purified phenolic TG analog 14 was then tested in a previously described microsomal assay system to assess inhibition of the SERCA pump compared to TG, FIG. 6.

Compound: C/C=C(/C)C(=O)O[C@H]1C(C)=C2[C@H]([C@@H]1OC(=O)CCCCCCC)[C@@](C)(OC(C)=O)C[C@H](OC(=O)CCCCCCCCCCCNC(=O)C[C@H](N)C(=O)O)[C@@]1(O)[C@H]2OC(=O)[C@@]1(C)O [12ADT-Asp]
Tumor/Kidney ratio (CWR22H tumor): 15.4
Tumor/Skeletal muscle ratio (CWR22H tumor): 20.5

Compound: C/C=C(/C)C(=O)O[C@H]1C(C)=C2[C@H]([C@@H]1OC(=O)CCCCCCC)[C@@](C)(OC(C)=O)C[C@H](OC(=O)CCCCCCCCCCCN)[C@@]1(O)[C@H]2OC(=O)[C@@]1(C)O [12ADT]
SERCA inhibition compared to TG (SERCA): as efficiently as does TG

stability to hydrolysis in plasma [1]: completely stable to hydrolysis
stability to hydrolysis in plasma [2]: completely stable to hydrolysis
Compound: N[C@@H](CC(=O)O)C(=O)N[C@@H](CCC(=O)N[C@@H](CCC(=O)N[C@@H](CC(=O)O)C(=O)N[C@@H](CCC(=O)O)C(=O)O)C(=O)O)C(=O)O [Asp-Glu*Glu*Asp-Glu] (H-D[γGlu][γGlu]DE-OH; N-terminus and C-terminus assumed)

stability in serum [3]: high stability in serum
Compound: NC(=O)CC[C@H](NC(=O)[C@H](CC(=O)O)NC(=O)CC[C@H](NC(=O)CC[C@H](NC(=O)CC[C@H](N)C(=O)O)C(=O)O)C(=O)O)C(=O)O [Glu*Glu*Glu*Asp-Gln] ({γGlu-γGlu-γGlu}-Asp-Gln-OH; N-terminus and C-terminus assumed)

stability in serum [3]: high stability in serum
Compound: N[C@@H](CCC(=O)N[C@@H](CCC(=O)N[C@@H](CCC(=O)N[C@@H](CC(=O)O)C(=O)N[C@@H](CCC(=O)O)C(=O)O)C(=O)O)C(=O)O)C(=O)O [Glu*Glu*Glu*Asp-Glu] ({γGlu-γGlu-γGlu}-Asp-Glu-OH; N-terminus and C-terminus assumed)

Compound: C/C=C(/C)C(=O)O[C@H]1C(C)=C2[C@H]([C@@H]1OC(=O)CCCCCCC)[C@@](C)(OC(C)=O)C[C@H](OC(=O)Cc1ccc(O)c(CCCCCNC(=O)[C@H](CC(C)C)NC(=O)[C@H](CCC(N)=O)NC(=O)[C@H](CC(C)C)NC(=O)[C@H](CCCCN)NC(=O)[C@H](CO)NC(=O)[C@H](CO)NC(=O)[C@H](Cc3c[nH]cn3)NC(=O)N3CCOCC3)c1)[C@@]1(O)[C@H]2OC(=O)[C@@]1(C)O [JHD9784, His-Ser-Ser-Lys-Leu-Gln-Leu-(PhADT)] ({Morpholide-CO}-HSSKLQL-X1)
cleavage of pro-drug by LNCaP cells (LNCaP cells [4]): can cleave
IC50 (LNCaP cells [5]): 2.5 nM

Compound: C/C=C(/C)C(=O)O[C@H]1C(C)=C2[C@H]([C@@H]1OC(=O)CCCCCCC)[C@@](C)(OC(C)=O)C[C@H](OC(=O)CCC)[C@@]1(O)[C@H]2OC(=O)[C@@]1(C)O [Thapsigargin]
Kd [6]: ≤ 0.0022 nM

Compound: C/C=C(/C)C(=O)OC1C(C)=C2[C@H]([C@@H]1OC(=O)CCCCCCC)[C@@](C)(OC(C)=O)CC(OC(=O)CCc1cc(I)c(O)c(CCCCCNC(=O)OC(C)(C)C)c1)[C@@]1(O)[C@H]2OC(=O)[C@@]1(C)O (stereo partly shown) [compound 14]
ability to inhibit the SERCA pump (SERCA pump): maintained potent ability to inhibit the SERCA pump at nanomolar concentrations
potency of SERCA pump inhibition relative to TG (fold less potent) (SERCA pump; range of concentrations, compared to TG): approximately 4 fold

Compound: (PhADT)-Glu-yGlu-yGlu-yGlu (PhADT-E[γGlu][γGlu][γGlu]; reading uncertain) [JHD9783]
cleavage of pro-drug by LNCaP cells (LNCaP cells [4]): can cleave
